Reference: article PMC9243770, “Structural and Biophysical Characterization of Purified Recombinant Arabidopsis thaliana's Alternative Oxidase 1A (rAtAOX1A): Interaction With Inhibitor(s) and Activator” (Frontiers in Plant Science, 2022)

Legend:
[1] = biological target: T1, Alternative oxidase 1A (rAtAOX1A) (Arabidopsis thaliana, UniProt Q39219); assay: oxygen uptake of purified enzyme with […] duroquinol (Clark-type electrode); type: biochemical
T1 construct: gene AOX1A; mature protein, N-terminal His6-tag, expressed in E. coli BL21(DE3)
T1 sequence (Q39219 63-354): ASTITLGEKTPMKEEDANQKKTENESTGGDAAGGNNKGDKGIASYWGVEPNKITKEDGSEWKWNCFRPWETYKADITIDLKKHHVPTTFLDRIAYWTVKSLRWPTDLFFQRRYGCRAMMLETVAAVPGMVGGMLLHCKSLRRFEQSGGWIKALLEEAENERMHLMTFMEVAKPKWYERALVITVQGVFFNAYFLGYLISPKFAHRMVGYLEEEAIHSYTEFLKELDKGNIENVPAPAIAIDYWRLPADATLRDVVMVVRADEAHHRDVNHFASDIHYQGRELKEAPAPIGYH

[2] = biological target: T1, Alternative oxidase 1A (rAtAOX1A); assay: SPR (Biacore, CM5 chip, […] Langmuir kinetic fit); also CD and inhibition of cell respiration; type: binding

Structure (SMILES)	oxygen uptake of purified enzyme with 600 μM duroquinol (Clark-type electrode) [1]	Kd [2]
Cc1c(C)c(O)c(C)c(C)c1O [DQH2, duroquinol]	3.86 μmol O2 min^−1 mg^−1 protein	–
O=C(NO)c1ccccc1O [SHAM, salicylhydroxamic acid]	–	3.08 nM
CCCOC(=O)c1cc(O)c(O)c(O)c1 [n-PG, n-propyl gallate]	–	0.491 nM
